According to a melting point compilation (Tetko et al.):

| melting point [°C] | Structure (SMILES) |
| --- | --- |
| 99 to 101 | CCC(C)(C)c1ccc(OCCCC(=O)O)c(C(C)(C)CC)c1 |
| 252 to 254 | O=C(O)c1ccc(-n2cccc2)c(F)c1 |
| 214 to 216 | CC(C)(C)OC(=O)NCc1nc(-c2ccc(N)cc2)n[nH]1 |
| 96 to 98 | Cc1ccc(N)c(C)c1S(=O)(=O)NC1CC1 |
| 218 to 220 | COc1ccc(C(=O)O)cc1S(=O)(=O)N1CCOCC1 |
| 168 to 170 | CCOC(=O)c1c(N)nn2cc[nH]c12 |
| 145 to 147 | Cc1ccc(-n2nc(C)c(NC(=O)OCC(F)(F)F)c2C)cc1 |
| 87 to 89 | CCOC(=O)c1cnc2c(OC)ccc(OC)c2c1Cl |
| 158 to 160 | O=C(O)C1CCN(c2ccccc2[N+](=O)[O-])CC1 |
| 208 to 210 | Cn1ccc(C(=O)N2CCCC(C(=O)O)C2)cc1=O (stereo unspecified) |
| 90 to 92 | CCOC(=O)c1cnn(C)c1NC(=O)CCl |
| 115 to 117 | O=C(O)C1CC(c2ccc(Cl)cc2Cl)=NO1 (stereo unspecified) |
| 82 to 84 | COCC(=O)Nc1cccc(N)c1 |
| 36 to 38 | CC(=O)c1ccc(N2CCCC2)c(F)c1 |
| 136 to 138 | COc1ccc(S(=O)(=O)N2CCc3ccccc32)cc1C(=O)O |
| 124 to 126 | COC(=O)c1c(N)sc(C)c1C |
| 171 to 179 | Nc1ccc(Br)c(C(=O)O)c1 |
| 80 to 82 | CCc1nnsc1C(=O)NC1CCCCC1 |
| 149 to 151 | O=C(O)C1CCN(c2cnccn2)CC1 |
| 58 to 60 | CC1CCC(CC(=O)O)CC1 (stereo unspecified) |

| melting point [°C] | Structure (SMILES) |
| --- | --- |
| 180 to 182 | Nc1c(C(=O)c2ccco2)oc2ccccc12 |
| 169 to 171 | C=CCNc1ncc(C(=O)O)s1 |
| 146 to 148 | O=C(O)C1(c2cccs2)CCCCC1 |
| 91 to 93 | Cc1cc(N)n(C2CCOC2)n1 (stereo unspecified) |
| 69 to 71 | CC1CCN(C(=O)c2ccc(Cl)nc2)CC1 |
| 39 to 41 | CCOC(=O)c1sc(N(C)C)nc1C |
| 95 to 97 | CCOC(=O)c1c[nH]n(C)c1=N |
| 157 to 159 | CN(C)c1ccnc(N)n1 |
| 164 to 166 | CS(=O)(=O)N1CCNC(=O)C1 |
| 119 to 121 | O=C1CCCc2sccc2N1 |
| 143 to 147 | Nn1c(S)nnc1C1CCCO1 (stereo unspecified) |
| 154 to 156 | CCc1n[nH]c(N)n1 |
| 233 to 235 | NC(=S)N1CCS(=O)(=O)CC1 |
| 59 to 61 | Cc1onc(CC(=O)O)c1C#N |
| 91 to 93 | CCOC(=O)c1ccc(N)c(O)c1 |
| 224 to 226 | COc1cc2nc(N)sc2cc1OC |
| 205 to 215 | CC1CCCC(C)N1C(=O)COc1ccc(C(=O)O)cc1 (stereo unspecified) |
| 174 to 176 | CC(=O)c1sc2nc(C)cc(C)c2c1N |
| 218 to 220 | O=C(O)c1ccc(Cl)cc1N1CCCC1=O |
| 89 to 91 | NNC(=O)CC1CC1 |

| melting point [°C] | Structure (SMILES) |
| --- | --- |
| 199 to 201 | CN1C(=O)Cc2cc(C(=O)CCl)ccc21 |
| 149 to 151 | COc1cc2c(cc1OC)CN(Cc1ccccc1N)CC2 |
| 189 to 191 | Cc1nc(C(=O)O)nn1-c1ccccc1Cl |
| 154 to 156 | COc1cc(Br)ccc1C(=O)O |
| 77 to 79 | COc1ccc(C(=O)C(F)(F)F)cc1OC |
| 196 to 198 | CC(C)(C)OC(=O)N1CCN(c2nc(N)ns2)CC1 |
| 39 to 41 | CC(CS(C)(=O)=O)NC1CC1 (stereo unspecified) |
| 166 to 168 | CCCn1c(N)cc(=O)n(C)c1=O |
| 135 to 137 | CC(=O)Nc1ncccc1N |
| 233 to 235 | Nc1c(Cl)cc(Br)cc1C(=O)O |
| 83 to 85 | CC(C)Oc1ccc(Cl)cc1C(=O)O |
| 168 to 170 | CC(C)(C)OC(=O)NC1(C(N)=NO)CCCC1 |
| 80 to 82 | CC(C)(C)c1ccc(S(N)(=O)=O)s1 |
| 156 to 158 | CN(C)Cc1ccc(C(N)=O)cc1N |
| 103 to 105 | O=Cc1ccc(N2CCC(O)CC2)o1 |
| 79 to 81 | CNc1ccnc(C)n1 |
| 354 to 356 | O=C(O)c1ccc2c(=O)n3c(nc2c1)CCC3 |
| 94 to 96 | Cc1nc2sccn2c1C=O |

The next lines start with the compound.

| Structure (SMILES) | melting point [°C] |
| --- | --- |
| Nc1ccc(S(=O)(=O)Nc2nncs2)cc1 | 211 to 213 |
| O=C1NC(=O)C(c2cccc(Br)c2)N1 (stereo unspecified) | 185 to 187 |
| Nc1cc(F)c(-n2cccn2)cc1N | 101 to 103 |
| O=c1cc(CO)c2ccc(O)cc2o1 | 221 to 223 |
| O=c1cnc2ccccc2[nH]1 | 271 to 272 |
| CCc1ccc(C(C)CC(=O)O)cc1 (stereo unspecified) | 65 to 67 |
| Oc1[nH]nc2c1CC(c1ccccc1)CC2 (stereo unspecified) | 269 to 271 |
| CC(C(=O)O)N1C(=O)C2C3CCC(O3)C2C1=O (stereo unspecified) | 189 to 191 |
| O=C1C(Br)CCN1c1ccccc1F (stereo unspecified) | 76 to 78 |
| CSc1ccc(S(=O)(=O)Cl)cc1 | 46 to 48 |
| CN(c1ccccc1)S(=O)(=O)c1ccc(Cl)c(C(=O)O)c1 | 151 to 153 |
| N#CSCC(=O)c1ccccc1C(F)(F)F | 49 to 51 |
| N#Cc1ccc(-c2nnco2)cc1 | 142 to 144 |
| CNc1ccc(C)nn1 | 162 to 164 |
| Nc1ccc(-c2nnc(O)o2)cc1 | 166 to 168 |
| O=C(O)C1CC12CCCc1ccccc12 (stereo unspecified) | 161 to 163 |
| Cc1cc(C=O)c(C)n1-c1ccc(Cl)cc1 | 123 to 125 |
| O=C(O)CCNS(=O)(=O)c1ccc(Br)cc1 | 161 to 163 |
| O=C(CC(=O)C(F)F)c1ccco1 | 39 to 41 |
| NC(=O)c1cc(S(=O)(=O)NCC(=O)O)c[nH]1 | 279 to 281 |
| COc1ccc2c(c1)C=C(C#N)CO2 | 72 to 74 |
| CCN(CC)c1nc2ccccc2[nH]c1=O | 151 to 153 |

| Structure (SMILES) | melting point [°C] |
| --- | --- |
| O=C(Nc1ccccc1)OCC(F)(F)F | 62 to 65 |
| COc1ccc(C(=O)O)cc1-c1ccccc1 | 220 to 222 |
| O=C(O)c1nn(-c2ccccc2)cc1O | 154 to 156 |
| Cc1ccc(-n2c(S)nnc2-c2ccccn2)c(C)c1 | 234 to 236 |
| O=C(O)c1cc(-c2cccc(Cl)c2)no1 | 182 to 184 |
| O=C(O)c1cccc(-n2ccc(C(F)(F)F)n2)c1 | 159 to 161 |
| NS(=O)(=O)c1cc2c(cc1Br)CCCC(=O)N2 | 249 to 251 |
| CNCc1cc(Br)ccc1[N+](=O)[O-] | 29 to 31 |
| O=C1COc2cccc(O)c2N1 | 247 to 249 |
| OCc1nnc(-c2ccccc2)n1-c1ccccc1 | 199 to 201 |
| Nc1cc(F)c(F)cc1Br | 47 to 49 |
| O=Cc1cccc(OC(C(=O)O)c2ccccc2)c1 (stereo unspecified) | 98 to 100 |
| Cc1nc(-c2ccc(N)cc2)co1 | 112 to 114 |
| Nc1cc2c(cc1Cl)OCO2 | 90 to 92 |
| Clc1nncc2ccoc12 | 117 to 119 |
| O=C(O)C1(Cc2ccccc2)CC2CCC1C2 (stereo unspecified) | 89 to 91 |
| CCNS(=O)(=O)c1ccc(/C=C/C(=O)O)cc1 | 248 to 250 |
| Nn1c(S)nnc1-c1cccs1 | 216 to 220 |
| O=C(O)c1cnc2ccc(Br)cn2c1=O | 218 to 220 |
| Nc1cc([N+](=O)[O-])c(F)cc1F | 98 to 100 |
| CN(C)S(=O)(=O)c1ccccc1C#N | 57 to 59 |
| O=C(O)Cc1cccc(OCC(F)(F)F)c1 | 99 to 101 |

| Structure (SMILES) | melting point [°C] |
| --- | --- |
| COc1ccc(CNc2nnc(S)s2)cc1 | 137 to 139 |
| CN(C)C(=O)c1cccnc1Cl | 69 to 71 |
| CCc1cc(=O)[nH]c(-c2cccc(N)c2)n1 | 139 to 141 |
| CC(=O)c1cccc(NC(=O)C(C)Cl)c1 (stereo unspecified) | 111 to 113 |
| Cc1ccc(NC2C=CS(=O)(=O)C2)cc1C (stereo unspecified) | 177 to 179 |
| CN(CC(=O)O)C(=O)c1ccsc1 | 56 to 57 |
| Cc1cc(O)c(C#N)c(C)n1 | 301 to 303 |
| N#CCCNS(=O)(=O)c1ccc(C(=O)O)cc1 | 240 to 242 |
| Nc1c(F)cc(Cl)cc1F | 44 to 46 |
| Brc1cnc2nc[nH]c2c1 | 217 to 219 |
| CC(Sc1ccc(C#N)cc1)C(=O)O (stereo unspecified) | 114 to 116 |
| Cc1nn(Cc2ccc(Cl)cc2)c(O)c1C=O | 179 to 181 |
| COC(=O)CCS(=O)(=O)c1ccc(Br)cc1 | 75 to 77 |
| COc1ccc(-c2ccc(C=O)o2)c([N+](=O)[O-])c1 | 107 to 109 |
| COc1ccc(Cl)cc1CBr | 77 to 79 |
| O=C(O)/C=C/c1cn(-c2ccccc2)nc1-c1ccc(Cl)s1 | 200 to 202 |
| O=c1[nH]nc(-c2ccco2)o1 | 111 to 113 |
| O=C(O)c1nn(-c2ccc(F)cc2)ccc1=O | 240 to 242 |
| Oc1ccc(OCc2ccncc2)cc1 | 179 to 181 |
| O=C1c2ccccc2C(=O)N1CC1(CO)CCCC1 | 83 to 85 |
| NC(=O)NCC(=O)O | 174 to 176 |
| O=C(Nc1ccccc1C(=O)O)c1cccc(Br)c1 | 189 to 191 |

| Structure (SMILES) | melting point [°C] |
| --- | --- |
| O=S(=O)(NC1CC1)c1ccc(F)cc1 | 54 to 56 |
| O=C(CCl)NC1CS(=O)(=O)CC1Cl (stereo unspecified) | 181 to 190 |
| Clc1nc(-c2ccsc2)nc2sc3c(c12)CCCC3 | 148 to 150 |
| CN1CC(=O)N(c2ccc([N+](=O)[O-])cc2)C1=O | 161 to 163 |
| CC(Cl)C(=O)Nc1ccc(Cl)cn1 (stereo unspecified) | 88 to 90 |
| N#Cc1ccnc(S)c1 | 227 to 229 |
| O=C(O)CNC(=O)c1ccc(Cl)cc1 | 214 to 216 |
| COC(=O)c1ccc(COc2ccccc2C=O)cc1 | 90 to 92 |
| O=c1ccc(C(F)(F)F)n[nH]1 | 125 to 127 |
| Nc1ccc(S)c(Br)c1 | 94 to 96 |
| CC(Cl)C(=O)Nc1ccc(Cl)cc1 (stereo unspecified) | 100 to 102 |
| NNc1cnccn1 | 109 to 113 |
| OCCn1c(CSc2nnc(-c3ccc4c(c3)OCO4)o2)nc2ccc(Cl)cc21 | 202 to 204 |
| O=C(O)c1ccc(Cn2cc(Cl)cn2)o1 | 117 to 119 |
| NC(=O)c1ccc(F)c(N)c1 | 137 to 139 |
| Cn1c(S)nnc1C(F)F | 171 to 173 |
| NCC1(O)CCOCC1 | 65 to 67 |
| COC(=O)c1ccc(S(=O)(=O)Cl)cc1C | 54 to 56 |
| C#CCOc1ccc(Br)cc1C=O | 94 to 98 |
| CCC(CC)NS(=O)(=O)c1ccc(Cl)nc1 | 91 to 93 |
| Nc1cc(Cl)c(-c2cc(Cl)c(N)cc2Cl)cc1Cl | 135 to 140 |
| Cc1ccc(-c2nnc(C(C)Cl)o2)cc1 (stereo unspecified) | < 17 |
